Data from PMC7758046, “Novel piperazine–chalcone hybrids and related pyrazoline analogues targeting VEGFR-2 kinase; design, synthesis, molecular docking studies, and anticancer evaluation” (Journal of Enzyme Inhibition and Medicinal Chemistry, 2020).

Row | Structure (SMILES) | melting point
1 | O=C(C=Cc1cc([N+](=O)[O-])ccc1O)c1ccc(N2CCNCC2)cc1 [Vg, 3-(2-Hydroxy-5-nitrophenyl)-1-(4-(piperazin-1-yl)phenyl)prop-2-en-1-one] | 185 °C
2 | O=C(C=Cc1ccccc1F)c1ccc(N2CCNCC2)cc1 [Vc, 3-(2-Fluorophenyl)-1-(4-(piperazin-1-yl)phenyl)prop-2-en-1-one] | 176 °C
3 | N#Cc1ccccc1C=CC(=O)c1ccc(N2CCNCC2)cc1 [Va, 2-(3-Oxo-3-(4-(piperazin-1-yl)phenyl)prop-1-enyl)benzonitrile] | 150 °C

More lines, now with the values ahead:

Row | melting point | Structure (SMILES)
4 | 190 °C | O=C(C=Cc1ccco1)c1ccc(N2CCNCC2)cc1 [Vh, 3-(Furan-2-yl)-1-(4-(piperazin-1-yl)phenyl)prop-2-en-1-one]
5 | 170 °C | N#Cc1ccc(C=CC(=O)c2ccc(N3CCNCC3)cc2)cc1 [Vb, 4-(3-Oxo-3–(4-(piperazin-1-yl)phenyl)prop-1-enyl)benzonitrile]
